# Where two headings read alike, the source gives them in different places. Where a SMILES comes first, the peptide text is derived from it. Where no end group is shown, it is not given here. [ ]: non-standard residue; d: D form. Ala(indol-4-yl) = N[C@@H](Cc1cccc2[nH]ccc12)C(=O)O; 1Nal = N[C@@H](Cc1cccc2ccccc12)C(=O)O; NMeR = CN[C@@H](CCCNC(=N)N)C(=O)O; pGlu = O=C1CC[C@@H](C(=O)O)N1; Tle = CC(C)(C)[C@H](N)C(=O)O; dOrn = NCCC[C@@H](N)C(=O)O; Orn = NCCC[C@H](N)C(=O)O; Dab = NCC[C@H](N)C(=O)O
# Legend:
# [1] = target: T1, hNTS1 (Homo sapiens, UniProt P30989); test: Radioligand competition binding with [3H]NT, membranes of CHO-K1 cells expressing hNTS1; details: for hNTS1 Selectivity: Table 2, hNTS1 over hNTS2
# T1 construct: expressed in transfected cells; host or cells: CHO-K1
# Description: CHO-K1 cells that had been stably transfected separately with the hNTS1 or hNTS2 genes were cultured in 150 mm (500 cm^2) Petri plates with 35 ml of Dulbecco's modified Eagle's medium containing 100 μM minimal essential medium nonessential amino acids (Life Technologies, Inc.) supplemented with 5% (v/v) FetalClone II bovine serum product (Hyclone Labs, Logan, Utah). […] The cellular pellet (in Tris-HCl buffer) was stored at […] until the radioligand binding was performed.
# For use in binding assays, crude membrane preparations were prepared by centrifugation of the cellular pellet at 35,600×g for 10 min. The supernatant was decanted and discarded, and the cellular pellet was resuspended in 1 ml of Tris-HCl buffer followed by homogenization with a Brinkmann Polytron at setting 5.5 for 15 s. Centrifugation was repeated as above, the supernatant was decanted and discarded, and the cellular pellet was resuspended in 1 ml of Tris-HCl buffer followed by homogenization. Centrifugation was repeated a third time, the supernatant was discarded, and the final cellular pellet was suspended in 0.5-2.5 ml of Tris-HCl buffer. Protein concentration of the membrane preparation was estimated by the method of Lowry et al. using bovine serum albumin as a standard.
# Incubation was at 20° C. for 40 min. The assay was routinely terminated by addition of ice-cold 0.9% NaCl (5×1.5 ml), followed by rapid filtration through a GF/B filter strip that had been pretreated with 0.2% or 2% polyethyleneimine. Details of binding assays have been described previously. […] Data were analyzed using the LIGAND program.
# [2] = target: T2, hNTS2 (Homo sapiens, UniProt O95665); test: Radioligand competition binding with [3H]NT, membranes of CHO-K1 cells expressing hNTS2; details: for hNTS2 Selectivity: hNTS2 over hNTS1
# T2 construct: expressed in transfected cells; host or cells: CHO-K1
# Description: CHO-K1 cells that had been stably transfected separately with the hNTS1 or hNTS2 genes were cultured in 150 mm (500 cm^2) Petri plates with 35 ml of Dulbecco's modified Eagle's medium containing 100 μM minimal essential medium nonessential amino acids (Life Technologies, Inc.) supplemented with 5% (v/v) FetalClone II bovine serum product (Hyclone Labs, Logan, Utah). CHO cells (subculture 7-15) were harvested at confluence by aspiration of the medium, followed by a wash with ice-cold 50 mM Tris-HCl buffer, pH=7.4, which was discarded, resuspension in 5-15 ml of Tris-HCl, scraping the cells with a plastic spatula into a centrifuge tube, and collection of cells by centrifugation at 300×g for 5 min at 4° C., in a GPR centrifuge (Beckman Instruments, Fullerton, Calif.). The cellular pellet (in Tris-HCl buffer) was stored at −180° C. until the radioligand binding was performed.
# Incubation was at 20° C. for 40 min. The assay was routinely terminated by addition of ice-cold 0.9% NaCl (5×1.5 ml), followed by rapid filtration through a GF/B filter strip that had been pretreated with 0.2% or 2% polyethyleneimine. […] Data were analyzed using the LIGAND program.
# Curves were generated using the LIGAND program. […] Data are the means of duplicate determinations and are representative results from one of at least three independent experiments.
# [3] = read-out: hNTS1 Geometric Mean ∀ SEM (equilibrium dissociation constant Kd)
# [4] = Table 2, read-out: hNTS2 Geometric Mean ∀ SEM (equilibrium dissociation constant Kd)
# T2 sequence (O95665 whole entry): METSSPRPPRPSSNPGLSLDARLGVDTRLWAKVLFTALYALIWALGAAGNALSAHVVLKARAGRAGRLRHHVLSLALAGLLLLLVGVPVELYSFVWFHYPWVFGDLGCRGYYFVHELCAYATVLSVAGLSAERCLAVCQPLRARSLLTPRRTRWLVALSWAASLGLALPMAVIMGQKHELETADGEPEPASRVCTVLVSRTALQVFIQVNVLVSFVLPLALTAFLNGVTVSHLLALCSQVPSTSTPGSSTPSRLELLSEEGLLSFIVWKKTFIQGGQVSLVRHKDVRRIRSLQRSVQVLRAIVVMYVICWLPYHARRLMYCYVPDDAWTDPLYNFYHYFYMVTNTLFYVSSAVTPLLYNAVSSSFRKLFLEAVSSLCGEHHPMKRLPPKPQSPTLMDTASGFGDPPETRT
# T1 sequence (P30989 whole entry): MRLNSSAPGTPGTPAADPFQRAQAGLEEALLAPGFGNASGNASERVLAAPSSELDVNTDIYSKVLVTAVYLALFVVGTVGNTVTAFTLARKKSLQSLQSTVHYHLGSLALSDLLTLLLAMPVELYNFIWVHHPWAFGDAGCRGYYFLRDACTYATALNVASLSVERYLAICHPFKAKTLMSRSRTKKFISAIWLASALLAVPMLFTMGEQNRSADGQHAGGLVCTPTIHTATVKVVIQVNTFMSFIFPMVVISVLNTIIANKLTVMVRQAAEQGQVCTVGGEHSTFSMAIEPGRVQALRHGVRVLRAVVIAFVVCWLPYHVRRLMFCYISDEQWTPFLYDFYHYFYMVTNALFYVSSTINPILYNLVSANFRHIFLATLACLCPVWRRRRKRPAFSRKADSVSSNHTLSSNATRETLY
Compound,hNTS1 Selectivity [1],"Kd [1, 3]",hNTS2 Selectivity ([2]; Table 2),"Kd [2, 4]","Kd ([1]; text, read-out: Kd at hNTS1)","Kd ([2]; text b54, read-out: Kd at hNTS2)","Kd ([2]; text, read-out: Kd at hNTS2)",binding / Kd at hNTS1 in words ([1]; text b54),Kd at hNTS2 in words ([2]; text b54),Kd [1],Kd [2]
"CC[C@H](C)[C@H](NC(=O)[C@H](Cc1ccc(O)cc1)NC(=O)[C@@H]1CCCN1C(=O)[C@@H](CCCCN)NC(=O)[C@@H](N)CCCNC(=N)N)C(=O)N[C@@H](CC(C)C)C(=O)O [NT03, [D-Lys^9]NT(8-13)] (H-R[dK]PYIL-OH; N-terminus and C-terminus assumed)",0.4,–,2.5,–,–,–,–,–,–,0.69 ± 0.03 µM,0.28 ± 0.03 µM
"RRGYIL [NT07, [Gly^10]NT(8-13)]",0.7,–,1.4,–,–,–,–,–,–,1.38 ± 0.05 µM,0.97 ± 0.04 µM
"CC[C@H](C)[C@H](NC(=O)[C@H](Cc1ccc(O)cc1)NC(=O)[C@@H]1CCCN1C(=O)[C@H](CCCNC(=N)N)NC(=O)[C@@H](N)CCCN)C(=O)N[C@@H](CC(C)C)C(=O)O [NT21, [L-Orn^8]NT(8-13)] (H-[Orn]RPYIL-OH; N-terminus and C-terminus assumed)",5.2,0.00041 ± 3e-05 µM,0.2,0.0022 ± 0.0001 µM,–,–,–,–,–,–,–
"RRPYLL [NT09, [L-Leu^12]NT(8-13)]",0.3,–,2.9,–,–,–,–,–,–,0.0072 ± 0.0006 µM,0.0024 ± 0.0003 µM
"CC[C@H](C)[C@H](NC(=O)[C@H](Cc1ccc(O)cc1)NC(=O)[C@@H]1CCCN1C(=O)[C@H](CCCN)NC(=O)[C@@H](N)CCCNC(=N)N)C(=O)N[C@@H](CC(C)C)C(=O)O [NT23, [L-Orn^9]NT(8-13)] (H-R[Orn]PYIL-OH; N-terminus and C-terminus assumed)",1.6,0.00094 ± 6e-05 µM,0.6,0.0015 ± 0.0001 µM,–,–,–,–,–,–,–
"RKPYIL [NT18, [L-Lys^9]NT(8-13)]",0.8,–,1.3,–,–,–,–,–,–,0.00149 ± 9e-05 µM,0.00118 ± 9e-05 µM
"CC[C@H](C)[C@H](NC(=O)[C@H](Cc1ccc(O)cc1)NC(=O)[C@@H]1CCCN1C(=O)[C@@H](CCCNC(=N)N)NC(=O)[C@@H](N)CCCCN)C(=O)N[C@@H](CC(C)C)C(=O)O [NT16, [L-Lys^8,D-Arg^9]NT(8-13)] (H-K[dR]PYIL-OH; N-terminus and C-terminus assumed)",1.2,0.033 ± 0.006 µM,0.8,0.0396 ± 0.0006 µM,–,–,–,–,–,–,–
"KRPYIL [NT17, [L-Lys^8]NT(8-13)]",4.0,0.00025 ± 2e-05 µM,0.2,0.0012 ± 0.0002 µM,–,–,–,–,–,–,–

# The next lines start with results.
hNTS1 Selectivity [1],"Kd [1, 3]",hNTS2 Selectivity ([2]; Table 2),"Kd [2, 4]","Kd ([1]; text, read-out: Kd at hNTS1)","Kd ([2]; text b54, read-out: Kd at hNTS2)","Kd ([2]; text, read-out: Kd at hNTS2)",binding / Kd at hNTS1 in words ([1]; text b54),Kd at hNTS2 in words ([2]; text b54),Compound,Kd [1],Kd [2]
0.3,1.3 ± 0.4 µM,3.4,0.38 ± 0.04 µM,–,–,–,–,–,"CN[C@@H](CCCNC(=N)N)C(=O)N[C@H](CCCN)C(=O)N1CCC[C@H]1C(=O)N[C@@H](Cc1cccc2[nH]ccc12)C(=O)N[C@H](C(=O)N[C@@H](CC(C)C)C(=O)O)C(C)(C)C [NT78, [N-methyl-Arg^8,D-Orn^9,L-neo-Trp^11,tert-Leu^12]NT(8-13)] (H-[NMeR][dOrn]P[Ala(indol-4-yl)][Tle]L-OH; C-terminus assumed)",–,–
3.0,0.36 ± 0.04 µM,0.3,1.082 ± 0.006 µM,–,–,–,–,–,"CC[C@H](C)[C@H](NC(=O)[C@H](Cc1ccc(O)cc1)NC(=O)[C@@H]1CCCN1C(=O)[C@@H](CCCN)NC(=O)[C@@H](N)CCCN)C(=O)N[C@@H](CC(C)C)C(=O)O [NT26, [L-Orn^8,D-Orn^9]NT(8-13)]",–,–
1.7,0.0084 ± 0.0003 µM,0.6,0.0142 ± 0.0005 µM,–,–,–,–,–,"CC[C@H](C)[C@H](NC(=O)[C@H](Cc1cccc2ccccc12)NC(=O)[C@@H]1CCCN1C(=O)[C@H](CCCNC(=N)N)NC(=O)[C@H](CCCNC(=N)N)NC(=O)[C@@H]1CCCN1C(=O)[C@H](CCCCN)NC(=O)[C@H](CC(N)=O)NC(=O)[C@H](CCC(=O)O)NC(=O)[C@H](Cc1ccc(O)cc1)NC(=O)[C@H](CC(C)C)NC(=O)[C@@H]1CCC(=O)N1)C(=O)N[C@@H](CC(C)C)C(=O)O [NT62, [L-3,1-Nal^11]NT(1-13)] ([pGlu]LYENKPRRP[1Nal]IL-OH; C-terminus assumed)",–,–
19.1,–,0.1,–,0.55 µM,10 µM,10.5 µM,–,–,"CC[C@H](C)[C@H](NC(=O)[C@H](Cc1ccc(O)cc1)NC(=O)[C@@H]1CCCN1C(=O)[C@H](N)CCCN)C(=O)N[C@@H](CC(C)C)C(=O)O [NT35, [D-Orn^9]NT(9-13)] (H-[dOrn]PYIL-OH; N-terminus and C-terminus assumed)",–,–
0.5,1.4 ± 0.3 µM,2.1,0.66 ± 0.05 µM,–,–,–,–,–,"CN[C@@H](CCCNC(=N)N)C(=O)N[C@H](CCCN)C(=O)N1CCC[C@H]1C(=O)N[C@@H](Cc1c[nH]c2ccccc12)C(=O)N[C@H](C(=O)N[C@@H](CC(C)C)C(=O)O)C(C)(C)C [NT78T, [N-methyl-Arg^8,D-Orn^9,L-Trp^11,tert-Leu^12]NT(8-13)] (H-[NMeR][dOrn]PW[Tle]L-OH; N-terminus and C-terminus assumed)",–,–
6.6,0.0036 ± 0.0002 µM,0.2,0.024 ± 0.002 µM,–,–,–,–,–,"CC[C@H](C)[C@H](NC(=O)[C@H](Cc1ccc(O)cc1)NC(=O)[C@@H]1CCCN1C(=O)[C@H](CCCN)NC(=O)[C@H](N)CCCN)C(=O)N[C@@H](CC(C)C)C(=O)O [NT27, [D-Orn^8,L-Orn^9]NT(8-13)]",–,–
5.6,0.0012 ± 0.0001 µM,0.2,0.0065 ± 0.0003 µM,–,–,–,–,–,"CC[C@H](C)[C@H](NC(=O)[C@H](Cc1ccc(O)cc1)NC(=O)[C@@H]1CCCN1C(=O)[C@H](CCCNC(=N)N)NC(=O)[C@@H](N)CCN)C(=O)N[C@@H](CC(C)C)C(=O)O [NT29, [DAB^8]NT(8-13)] (H-[Dab]RPYIL-OH; N-terminus and C-terminus assumed)",–,–
6.6,0.12 ± 0.01 µM,0.2,0.79 ± 0.02 µM,–,–,–,–,–,"CC[C@H](C)[C@H](NC(=O)[C@H](Cc1ccc(O)cc1)NC(=O)[C@@H]1CCCN1C(=O)[C@@H](CCCN)NC(=O)[C@@H](N)CCCNC(=N)N)C(=O)N[C@@H](CC(C)C)C(=O)O [NT24, [D-Orn^9]NT(8-13)] (H-R[dOrn]PYIL-OH; N-terminus and C-terminus assumed)",–,–
0.2,1.53 ± 0.08 µM,4.8,0.32 ± 0.02 µM,–,–,–,–,–,"CC(C)C[C@H](NC(=O)[C@@H](NC(=O)[C@H](Cc1c[nH]c2ccccc12)NC(=O)[C@@H]1CCCN1C(=O)[C@@H](CCCN)NC(=O)[C@@H](N)CCCNC(=N)N)C(C)(C)C)C(=O)O [NT77T, [D-Orn^9,L-Trp^11,tert-Leu^12]NT(8-13)] (H-R[dOrn]PW[Tle]L-OH; N-terminus and C-terminus assumed)",–,–
1.3,0.003 ± 0.0003 µM,0.8,0.0039 ± 0.0002 µM,–,–,–,–,–,"CC[C@H](C)[C@H](NC(=O)[C@H](Cc1ccc(O)cc1)NC(=O)[C@@H]1CCCN1C(=O)[C@H](CCCN)NC(=O)[C@@H](N)CCCN)C(=O)N[C@@H](CC(C)C)C(=O)O [NT25, [L-Orn^8,L-Orn^9]NT(8-13)]",–,–
–,–,–,1.8 ± 0.1 µM,–,–,–,no detectable binding,micromolar Kd's,"CC[C@H](C)[C@H](NC(=O)[C@@H](Cc1ccc(O)cc1)NC(=O)[C@@H]1CCCN1C(=O)[C@@H](CCCN)NC(=O)[C@@H](N)CCCNC(=N)N)C(=O)N[C@@H](CC(C)C)C(=O)O [NT37, [D-Orn^9,D-Tyr^11]NT(8-13)] (H-R[dOrn]P[dY]IL-OH; N-terminus and C-terminus assumed)",–,–

# — US20110263507A1 (priority 2007, published 2011)
